Measurements reported in patent US20230028441A1, “NOVEL HETEROARYL-TRIAZOLE COMPOUNDS AS PESTICIDES” (Bayer Aktiengesellschaft, priority 2019, published 2023).

Experiments:
Type in all cases: in vivo
[1] = system: adult engorged female ticks (Rhipicephalus microplus); experiment: Rhipicephalus (Boophilus) microplus injection test; conditions: 168 h, egg deposition after 7 days, read-out: efficacy (infertile eggs); for pest or weed control at 0.004 mg: 4 μg/animal
How it was run: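 Compound was dissolved in DMSO at 10 mg per 0.5 mL and diluted with DMSO to the test concentration. Five engorged adult females received a 1 μL abdominal injection and were kept in a climate chamber. After 7 days, fertile egg deposition was scored, with unclear eggs held until hatching at about 42 days; 100% efficacy means all eggs were infertile.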

[2] = system: cattle tick larvae (Rhipicephalus microplus), strain Parkhurst, resistant against synthetic pyrethroids; experiment: Rhipicephalus (Boophilus) microplus in-vitro contact test, larval cattle tick; conditions: 5 μg/cm^2 (=500 g/ha), after 48 hours, read-out: efficacy (larvae dead or moribund)
How it was run: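 Acetone solutions of compound were coated on glass tube walls (900 ppm giving 5 μg/cm^2) and dried. 20–50 pyrethroid-resistant Parkhurst larvae were held per tube at 27° C and 85% relative humidity; after 48 h negative geotaxis scored efficacy as percent larvae dead or moribund.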

[3] = system: adult cat fleas (Ctenocephalides felis); experiment: Ctenocephalides felis in-vitro contact test, adult cat flea; conditions: 5 μg/cm^2 (=500 g/ha), after 48 hours, read-out: efficacy (fleas dead or moribund)
Procedure: (§1) 9 mg compound is solved in 1 mL acetone and diluted with acetone to the desired concentration. 250 μL of the test solution is filled in 25 mL glass test tubes and homogeneously distributed on the inner walls by rotation and tilting on a shaking device (2 h at 30 rpm). With a compound concentration of 900 ppm, an inner surface of 44.7 cm^2 and a homogeneous distribution, a dose of 5 μg/cm^2 is achieved.
(§2) After the solvent has evaporated, each test tube is filled with 5-10 adult cat fleas (Ctenocephalides felis), closed with a perforated lid and incubated in a lying position at room temperature and relative humidity. After 48 hours efficacy is determined. The fleas are patted on the ground of the tubes and are incubated on a heating plate at 45-50° C. for at most 5 minutes. Immotile or uncoordinated moving fleas, which are not able to escape the heat by climbing upwards, are marked as dead or moribund.
An efficacy of 100% means all fleas are dead or moribund; 0% means no fleas are dead or moribund.

[4] = system: larvae of the banded cucumber beetle (Diabrotica balteata); experiment: Diabrotica balteata spray test; conditions: 168 h, 100 g/ha (=32 μg/well), after 7 days, wheat seeds, read-out: efficacy (seedlings grown up)
How it was run: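 Germinated wheat seedlings (5 per well, agar plates) sprayed with compound in acetone/DMF diluted in water with 1000 ppm emulsifier, then infested with 10-20 larvae per unit. Efficacy scored after 7 days as % seedling growth relative to untreated, uninfested control (100% = normal growth, 0% = none).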

[5] = system: adult unfed cat fleas (Ctenocephalides felis); experiment: Ctenocephalides felis oral test; conditions: 48 h, 100 ppm in cattle blood, after 2 days
Procedure: Solvent: dimethyl sulfoxide
To produce a suitable preparation of active compound, 10 mg of active compound are dissolved in 0.5 mL solvent, and the concentrate is diluted with cattle blood to the desired concentration.
Approximately 20 adult unfed cat fleas (Ctenocephalides felis) are placed in flea chambers. The blood chamber, sealed with parafilm on the bottom, are filled with cattle blood supplied with compound solution and placed on the gauze covered top of the flea chamber, so that the fleas are able to suck the blood. The blood chamber is heated to 37° C. whereas the flea chamber is kept at room temperature.
After 2 days mortality in % is determined. 100% means all the fleas have been killed; 0% means none of the fleas have been killed.

[6] = system: larvae of the southern green stink bug (Nezara viridula); experiment: Nezara viridula spray test; conditions: in Hordeum vulgare, 96 h
How it was run: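 Barley plants infested with Nezara viridula larvae were sprayed with compound in acetone/dimethylformamide, diluted in water containing 1000 ppm alkylarylpolyglycol ether emulsifier. Mortality (%) was scored after 4 days; 100% means all stink bugs killed.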

[7] = system: adult brown dog ticks (Rhipicephalus sanguineus); experiment: Rhipicephalus sanguineus in-vitro contact test with adult brown dog ticks; conditions: after 48 hours, read-out: efficacy (ticks dead or moribund)
Procedure: as §1
as §2, with “brown dog ticks (Rhipicephalus sanguineus),” for “cat fleas (Ctenocephalides felis),”, “ticks” for “fleas”, “ticks,” for “fleas,”
An efficacy of 100% means all ticks are dead or moribund; 0% means no ticks are dead or moribund.

[8] = system: fall armyworm larvae (Spodoptera frugiperda); experiment: Spodoptera frugiperda spray test (maize leaf sections); conditions: 168 h
How it was run: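 Maize leaf sections were sprayed with compound formulated in acetone/DMF and diluted in water containing 1000 ppm emulsifier. Once dry, sections were infested with fall armyworm larvae. Mortality (%) was scored after 7 days.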

[9] = system: brown planthopper (Nilaparvata lugens); experiment: Nilaparvata lugens spray test; conditions: in Oryza sativa, 96 h
Procedure: Solvent: 78.0 parts by weight of acetone • • 1.5 parts by weight of dimethylformamide
Emulsifier: alkylarylpolyglycol ether
To produce a suitable preparation of active compound, 1 part by weight of active compound is mixed with the stated amount of solvents and is diluted with water, containing an emulsifier concentration of 1000 ppm, to the desired concentration. Further test concentrations are prepared by dilution with emulsifier containing water.
Rice plants (Oryza sativa) are sprayed with a preparation of the active ingredient of the desired concentration and the plants are infested with the brown planthopper (Nilaparvata lugens).
After 4 days mortality in % is determined. 100% means all planthoppers have been killed and 0% means none of the planthoppers have been killed.

Row | SMILES | pest or weed control at 32 µg/disc, 100 g/ha [4] [%] | mortality at 500 g/ha [6] [%] | mortality at 100 g/ha [8] [%] | mortality at 500 g/ha [9] [%] | further results
1 | CC(NC(=O)c1cc(Cl)cc(C(F)(F)F)c1)c1nc(C#N)nn1-c1ccc(Cl)cn1 (racemic) [I-071, 3-chloro-N-[1-[2-(5-chloro-2-pyridyl)-5-cyano-1,2,4-triazol-3-yl]ethyl]-5-(trifluoromethyl)benzamide] | – | – | – | – | pest or weed control at 0.004 mg [1]: 100%; pest or weed control at 0.02 mg ([1]; 20 μg/animal): 100%; pest or weed control at 5 µg/cm2 [2]: 90%; pest or weed control at 5 µg/cm2 [3]: 80%
2 | CC(NC(=O)c1cc(Cl)cc(C(F)(F)F)c1)c1nc(C(N)=O)nn1-c1ccc(C#N)cn1 (stereo not drawn) [I-075] | 100 | – | – | – | pest or weed control at 0.004 mg [1]: 100%; mortality at 100 ppm [5]: 100%; pest or weed control at 5 µg/cm2 [2]: 100%; pest or weed control at 5 µg/cm2 [3]: 90%
3 | CC(NC(=O)c1cc(Br)cc(C2(C(F)(F)F)CC2)c1)c1nc(N)nn1-c1ncccn1 (stereo not drawn) [I-112] | – | – | – | – | pest or weed control at 5 µg/cm2 [2]: 100%; pest or weed control at 5 µg/cm2 [3]: 90%
4 | CC(NC(=O)c1cc(C(F)(F)F)cc(C(F)(F)F)c1)c1nc(N)nn1-c1ccc(C(=O)N2CCOCC2)cn1 (stereo not drawn) [I-115] | – | 100 | 100 | – | pest or weed control at 1 µg/cm2, 100 g/ha ([7]; 1 μg/cm^2 (=100 g/ha)): 100%; pest or weed control at 5 µg/cm2, 500 g/ha ([7]; 5 μg/cm^2 (=500 g/ha)): 100%; pest or weed control at 5 µg/cm2 [2]: 100%; pest or weed control at 5 µg/cm2 [3]: 100%
5 | CON(C)c1nc([C@H](C)NC(=O)c2cc(C(F)(F)F)cc(C(F)(F)F)c2)n(-c2ncccn2)n1 [I-149, N-[(1S)-1-[5-[methoxy(methyl)amino]-2-pyrimidin-2-yl-1,2,4-triazol-3-yl]ethyl]-3,5-bis(trifluoromethyl)benzamide] | 100 | 100 | 100 | 100 | –
6 | CON(C)c1nc([C@H](C)NC(=O)c2cc(Br)cc(OC(F)(F)F)c2)n(-c2ncccn2)n1 [I-151] | 100 | 100 | 100 | 100 | –
7 | CC(NC(=O)c1cc(Cl)cc(S(C)(=O)=O)c1)c1nc(N2CCOCC2)nn1-c1ccc(C#N)cn1 (stereo not drawn) [I-160] | – | – | – | 100 | –
8 | CNc1nc([C@H](C)NC(=O)c2cc(C(F)(F)F)cc(C(F)(F)F)c2)n(-c2ccc(C#N)cn2)n1 [I-168] | 100 | 100 | 100 | 100 | –
9 | C[C@H](NC(=O)c1cc(Cl)cc(S(C)(=O)=O)c1)c1nc(N)nn1-c1ncccn1 [I-169] | – | 100 | – | 100 | –
10 | CC(NC(=O)c1cc(Cl)cc(C(C)(C)C#N)c1)c1nc(N(C)C)nn1-c1ncc(Cl)cn1 (stereo not drawn) [I-170] | 100 | 100 | 100 | 100 | –
11 | C[C@H](NC(=O)c1cc(C(F)(F)F)cc(C(F)(F)F)c1)c1nc(N)nn1-c1ccc(C#N)cn1 [I-173] | 100 | 90 | 100 | 100 | –
12 | C[C@H](NC(=O)c1cc(OC(F)(F)F)cc(C2CC2)c1)c1nc(N2CCOCC2)nn1-c1ccc(C#N)cn1 [I-174] | 100 | – | – | 100 | –
13 | C[C@H](NC(=O)c1cc(C(F)(F)F)cc(C(F)(F)F)c1)c1nc(N2CCOCC2)nn1-c1ccc(C#N)cn1 [I-175] | 100 | – | 100 | 100 | –
14 | C[C@H](NC(=O)c1cc(C(F)(F)F)cc(C(F)(F)F)c1)c1nc(N(C)C)nn1-c1ncc(Cl)cn1 [I-176] | 100 | 100 | 100 | 100 | –
15 | C[C@H](NC(=O)c1cc(OC(F)(F)F)cc(C2CC2)c1)c1nc(N(C)C)nn1-c1ncc(Cl)cn1 [I-177] | 100 | 100 | 100 | 100 | –
16 | CCS(=O)(=O)c1cc(OC(F)(F)F)cc(C(=O)N[C@@H](C)c2nc(NC)nn2-c2ncccn2)c1 [I-180] | 100 | 100 | 100 | 100 | –
17 | CNc1nc([C@H](C)NC(=O)c2cc(OC(F)(F)F)cc(S(=O)(=O)C(C)C)c2)n(-c2ncccn2)n1 [I-181] | – | – | – | 100 | –
18 | CNc1nc([C@H](C)NC(=O)c2cc(OC(F)(F)F)cc(S(=O)(=O)c3ccc(Cl)cc3)c2)n(-c2ncccn2)n1 [I-182] | 100 | – | 100 | 100 | –
19 | CNc1nc([C@H](C)NC(=O)c2cc(C3CC3)cc(S(=O)(=O)C(F)(F)F)c2)n(-c2ncccn2)n1 [I-183] | 100 | 100 | 100 | 100 | –
20 | CNc1nc([C@H](C)NC(=O)c2cc(OC(F)(F)F)cc(S(C)(=O)=O)c2)n(-c2ncccn2)n1 [I-185] | 100 | 100 | – | 100 | –
21 | CNc1nc([C@H](C)NC(=O)c2cc(Cl)cc(S(=O)(=O)C(F)(F)F)c2)n(-c2ncccn2)n1 [I-186] | 100 | 100 | 100 | 100 | –
22 | C[C@H](NC(=O)c1cc(OC(F)(F)F)cc(S(C)(=O)=O)c1)c1nc(N)nn1-c1ncccn1 [I-188] | – | 100 | – | 100 | –
23 | CCS(=O)(=O)c1cc(C(=O)N[C@@H](C)c2nc(N)nn2-c2ncccn2)cc(C(F)(F)F)c1 [I-189] | – | 100 | – | 100 | –
24 | C[C@H](NC(=O)c1cc(C(F)(F)F)cc(S(C)(=O)=O)c1)c1nc(N)nn1-c1ncccn1 [I-211] | – | 100 | – | 100 | –
